In publication PMC3200184, “In vitro anti-plasmodial activity of Dicoma anomala subsp. gerrardii (Asteraceae): identification of its main active constituent, structure-activity relationship studies and gene expression profiling” (Malaria Journal, 2011):
Read-outs that look alike come from different tables or passages of the source.

Experiments:
[1] = tested on: P. falciparum chloroquine-sensitive D10 strain; assay: pLDH in vitro anti-malarial assay, D10 strain; assay type: cell-based, Plasmodium falciparum; conditions: for IC50: Plasmodium falciparum; for Anti-malarial activity (in words): D10 strain, SAR discussion
Procedure: (§1) Asexual P. falciparum chloroquine-sensitive 3D7 and D10 cultures, as well as chloroquine-resistant K1 strain cultures, were maintained and synchronized according to established methods in an atmosphere consisting of 5% oxygen, 5% carbon dioxide and 90% nitrogen. The parasites were maintained at a 5% haematocrit in RPMI 1640 medium supplemented with 25 mM HEPES, 22 mM glucose, 0.0088% hypoxanthine, 40 ug/mL gentamycin (all Sigma) and 0.5% Albumax (Invitrogen).
(§2) The anti-plasmodial activities of the extracts and pure compounds were determined against the chloroquine-sensitive D10 and the chloroquine-resistant K1 strains via the parasite lactate dehydrogenase (pLDH) assay. All test substances were stored at -20°C prior to testing. […] Chloroquine diphosphate (Sigma) was used as a reference drug in all experiments. The test substances were evaluated as ten serial two-fold dilutions (0.2 - 100 μg/mL final concentration) in medium (two replicates per concentration point) in duplicate wells. […] Test solutions were mixed with suspensions of infected human red blood cells to achieve a final haematocrit of 1% and parasitaemia of 2% and incubated for 48 h in microtitre plates (250 uL final volume). Incubation conditions were as described above for the routine maintenance of the P. falciparum cultures. The IC50 values, serving as a measure for anti-plasmodial activities, were calculated by non-linear regression dose-response analysis using GraphPad Prism v.4.0 software.

[2] = tested on: P. falciparum chloroquine-resistant K1 strain; assay: microbe, parasite or virus in culture; assay type: cell-based; conditions: Plasmodium falciparum
Procedure: as §1, §2

[3] = tested on: Chinese hamster ovary (CHO) cell line; assay: MTT in vitro cytotoxicity assay; assay type: cell-based; conditions: for IC50: Cricetulus griseus, read-out: CHO IC50 (μM) n = 2; for Mammalian toxicity, CHO (in words): SAR discussion
Procedure: Compounds were tested for in vitro cytotoxicity against a Chinese hamster ovary (CHO) cell line using the MTT [3-(4,5-dimethylthiazol-2-yl)-2,5-diphenyltetrazolium bromide] assay. The CHO cells were cultured in DMEM: Hams F-12 medium (1:1) supplemented with 10% heat-inactivated foetal calf serum (FCS) and gentamycin ([…]) (Highveld Biological, RSA). Samples were dissolved in 10% MeOH. Stock solutions (2 mg/mL) were prepared and were stored at -20°C until use. The samples were added to CHO cells as five ten-fold serial dilutions ranging from 100 - 0.01 μg/mL. A serial dilution of emetine (100 - 0.001 μg/mL) was used as a positive control. Cells were seeded in 96-well plates at a concentration of 10^5/mL (100 μL per well) and incubated at 37°C for 24 h in a humidified 5% CO2-air atmosphere. The medium was subsequently aspirated from the wells and replaced with 200 μL of the test compound dilutions. The microplates were incubated at 37°C for 48 h, after which 25 μL of sterile MTT (5 mg/mL in PBS) was added to each well and incubation was continued for 4 h at 37°C. Formazan crystals formed by viable cells were dissolved in DMSO and quantitated by measuring absorbance at 540 nm in a microtitre plate reader (Cambridge Technologies). Cell viabilities were calculated relative to reference wells containing no test compounds (positive cell controls) and no cells (background controls), plotted against log[test sample] and IC50 values derived by non-linear regression analysis using GraphPad Prism v.4.0 software.

P. falciparum 3D7 [4] = assay: Dose-response curves on P. falciparum 3D7 (IC99 for treatment); assay type: cell-based, Plasmodium falciparum; conditions: P. falciparum 3D7, determined from dose-response curves
Procedure: as §1
A morphological comparison between compound 1 treated versus untreated parasites was performed to assess the effect of treatment and to establish sampling times, by examining the stage-specific progression of parasites across the intra-erythrocytic development cycle. The solvent (DMSO) or compound 1 was added in the window shortly after red blood cell (RBC) invasion and parasite development was monitored 6 hourly over a 48 h period using conventional Giemsa-stained smears. Fresh cultures were scaled up to 50 ml (5% hematocrit, 10% parasitemia), synchronized twice and treated with compound 1 in the window around invasion. Fifteen milliliters of culture was harvested at each of the stages used for transcriptional analyses (2, 6 and 12 hpt). Similar volumes were harvested from untreated P. falciparum 3D7 control cultures at the same time points. Parallel drug treatments were conducted, serving as biological replicates. […]

P. falciparum 3D7 [5] = assay: Morphological analysis of treated ring-stage parasites (Giemsa smears); assay type: cell-based, Plasmodium falciparum; conditions: 3D7, treated at early ring stage with 12.5 μM, followed over 48 h
Procedure: A morphological comparison between compound 1 treated versus untreated parasites was performed to assess the effect of treatment and to establish sampling times, by examining the stage-specific progression of parasites across the intra-erythrocytic development cycle. The solvent (DMSO) or compound 1 was added in the window shortly after red blood cell (RBC) invasion and parasite development was monitored 6 hourly over a 48 h period using conventional Giemsa-stained smears. Fresh cultures were scaled up to 50 ml (5% hematocrit, 10% parasitemia), synchronized twice and treated with compound 1 in the window around invasion. Fifteen milliliters of culture was harvested at each of the stages used for transcriptional analyses (2, 6 and 12 hpt). Similar volumes were harvested from untreated P. falciparum 3D7 control cultures at the same time points. Parallel drug treatments were conducted, serving as biological replicates. RNA was extracted from the frozen erythrocyte pellets as described.
A morphological analysis was performed with dehydrobrachylaenolide to ascertain the point during intra-erythrocytic development at which P. falciparum 3D7 growth was affected. […] Based on these morphological observations and the apparent rapid effect of dehydrobrachylaenolide on P. falciparum development, sampling times for transcriptional analysis were subsequently determined as 2, 6 and 12 hpt. […]

NCI's 60-cell line panel = tested on: NCI's 60-cell line panel; design: method as in earlier work; conditions: selectivity trend towards the leukaemia sub-panel; cited from earlier work
[6] = tested on: induction of intracellular adhesion molecule-1 (ICAM-1); design: method as in PMID 12762788; conditions: cited from earlier work
[7] = D10, 48 h, read-out: D10 IC50 (μM) n = 8
[8] = K1, 48 h, read-out: K1 IC50 (μM) n = 4
[9] = D10, read-out: D10 strain IC50 (μM) n = 2
[10] = K1, read-out: K1 strain IC50 (μM) n = 2
[11] = read-out: D10 strain IC50 (μM) n = 2, Table 2, D10, pLDH assay, parent compound n = 8

Q: For `CCN(CC)CCCC(C)Nc1ccnc2cc(Cl)ccc12` (centres unmarked) [Chloroquine, Chloroquine diphosphate, reference compound], which IC50 [1, 7] is on record?
A: 0.038 µM

Q: And the IC50 [2, 8]?
A: 0.2 µM

Q: And the IC50 ([3]; CHO, 48 h)?
A: 35.8 µM

Q: Which results are given for `C=C1C(=O)C=C[C@]2(C)CC[C@H]3C(=C)C(=O)O[C@H]3[C@@H]12` [Compound 1, 3-oxoeudesma-1,4(15),11(13)-triene-12,6α-lide]?
A: IC50 [1, 7]: 1.86 ± 0.254 µM; IC50 [1, 9]: 1.86 µM; IC50 ([1]; D10, read-out: IC50 against D10 strain): 0.455 µg/mL; IC50 [2, 8]: 4.09 ± 0.579 µM; IC50 ([2]; K1, read-out: IC50 against K1 strain): 1 µg/mL; IC50 [2, 10]: 4.09 µM; IC50 ([3]; CHO, 48 h): 17.2 µM; IC50 ([3]; CHO): 17.2 µM; IC99 (treatment concentration) (P. falciparum 3D7 [4]): 12.5 µM; Morphological effect on intra-erythrocytic development (P. falciparum 3D7 [5]): Treated parasites remained arrested in the ring phase; Anti-cancer activity (in words) (NCI's 60-cell line panel): significant anti-cancer activity; Activity toward ICAM-1 induction (in words) [6]: inhibitory activity

Q: With `C=C1C(=O)O[C@@H]2C3=C(C)C(=O)C=C[C@]3(C)CC[C@@H]12` [Compound 2, (3aS,5aS,9bS)-5a,9-dimethyl-3-methylene-3a,4,5,5a-tetrahydronaphtho[1,2-b]furan-2,8(3H,9bH)-dione] as the compound, how does the “Anti-malarial activity (in words)” value [1] read?
A: six-fold less active

Q: And the IC50 [1, 9]?
A: 11.5 µM

Q: And the IC50 [2, 10]?
A: 9.05 µM

Q: What about the IC50 ([3]; CHO) of the same compound?
A: 7.01 µM

Q: For `CC1=C2[C@H]3OC(=O)[C@@H](C)[C@@H]3CC[C@@]2(C)C=CC1=O` [Compound 3, santonin], which “Anti-malarial activity (in words)” value [1] is on record?
A: devoid of any significant anti-malarial activity

Q: What about the IC50 [1, 9] of the same compound?
A: > 40 µM

Q: What about the “Mammalian toxicity, CHO (in words)” value ([3]; CHO cells) of the same compound?
A: devoid of any significant anti-malarial activity or mammalian toxicity

Q: And the IC50 ([3]; CHO)?
A: > 400 µM

Q: For `C[C@@H]1C(=O)O[C@H]2[C@H]1CC[C@@]1(C)CCC(=O)[C@H](C)[C@H]21` [Compound 4, (3S,3aS,5aS,9R,9aS,9bS)-3,5a,9-trimethyl-octahydronaphtho[1,2-b]furan-2,8(3H,9bH)-dione], which “Anti-malarial activity (in words)” value [1] is on record?
A: lacking both activity and toxicity

Q: What about the IC50 [1, 11] of the same compound?
A: > 40 µM

Q: And the “Mammalian toxicity, CHO (in words)” value ([3]; CHO cells)?
A: lacking both activity and toxicity

Q: What about the IC50 ([3]; Table 2, CHO cells, MTT) of the same compound?
A: > 400 µM

Q: For `C=C1C(=O)C[C@H]2C1CCC1(C)CCC(=O)C(C)C21` (stereo partly drawn) [Compound 5, (9bS)-5a,9-Dimethyl-3-methyleneoctahydro-1H-cyclopenta[a]naphthalene-2,8(3H,9bH)-dione], which “Anti-malarial activity (in words)” value [1] is on record?
A: moderate anti-malarial activity

Q: What about the IC50 [1, 11] of the same compound?
A: 22.1 µM

Q: What about the “Mammalian toxicity, CHO (in words)” value ([3]; CHO cells) of the same compound?
A: substantially reduced

Q: What about the IC50 ([3]; Table 2, CHO cells, MTT) of the same compound?
A: 124 µM

Q: For `C=C1C(=O)O[C@@H]2[C@H]3[C@@H](C)C(=O)C=C[C@]3(C)CC[C@@H]12` [Compound 6, (3aS,5aS,9R,9aS,9bS)-5a,9-dimethyl-3-methylene-3a,4,5,5a,9,9a-hexahydronaphtho[1,2-b]furan-2,8(3H,9bH)-dione], which “Anti-malarial activity (in words)” value [1] is on record?
A: no significant improvement in anti-malarial activity

Q: And the IC50 [1, 9]?
A: 16.9 µM

Q: What about the “Mammalian toxicity, CHO (in words)” value ([3]; CHO cells) of the same compound?
A: increased mammalian cell toxicity

Q: And the IC50 ([3]; CHO)?
A: 41.9 µM
